Source: PubChem BioAssay (NCI)
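Assay format: 96-well plates, 48-hour exposure. GI50 = concentration required for 50% inhibition of growth. TGI: concentration producing complete growth inhibition.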

Assays:
Experiment in all cases: NCI anticancer screen, dose series, 48 h
786-0 renal = tested on: 786-0 renal
A498 renal = tested on: A498 renal
A549 NSCLC = tested on: A549 NSCLC
ACHN renal = tested on: ACHN renal
BT-549 breast = tested on: BT-549 breast
CAKI-1 renal = tested on: CAKI-1 renal
CCRF-CEM leukemia = tested on: CCRF-CEM leukemia
COLO 205 colon = tested on: COLO 205 colon
DU-145 prostate = tested on: DU-145 prostate
EKVX NSCLC = tested on: EKVX NSCLC
HCC-2998 colon = tested on: HCC-2998 colon
HCT-116 colon = tested on: HCT-116 colon
HCT-15 colon = tested on: HCT-15 colon
HL-60(TB) leukemia = tested on: HL-60(TB) leukemia
HOP-62 NSCLC = tested on: HOP-62 NSCLC
HOP-92 NSCLC = tested on: HOP-92 NSCLC
HS 578T breast = tested on: HS 578T breast
HT29 colon = tested on: HT29 colon
IGROV1 ovarian = tested on: IGROV1 ovarian
K-562 leukemia = tested on: K-562 leukemia
KM12 colon = tested on: KM12 colon
LOX IMVI melanoma = tested on: LOX IMVI melanoma
M14 melanoma = tested on: M14 melanoma
MCF7 breast = tested on: MCF7 breast
MDA-MB-231 breast = tested on: MDA-MB-231 breast
MDA-MB-435 = tested on: MDA-MB-435
MOLT-4 leukemia = tested on: MOLT-4 leukemia
NCI-H226 lung = tested on: NCI-H226 lung
NCI-H23 lung = tested on: NCI-H23 lung
NCI-H460 lung = tested on: NCI-H460 lung
NCI-H522 lung = tested on: NCI-H522 lung
NCI/ADR-RES ovarian = tested on: NCI/ADR-RES ovarian
OVCAR-3 ovarian = tested on: OVCAR-3 ovarian
OVCAR-4 ovarian = tested on: OVCAR-4 ovarian
OVCAR-5 ovarian = tested on: OVCAR-5 ovarian
OVCAR-8 ovarian = tested on: OVCAR-8 ovarian
PC-3 prostate = tested on: PC-3 prostate
RPMI-8226 leukemia = tested on: RPMI-8226 leukemia
RXF 393 renal = tested on: RXF 393 renal
SF-268 CNS = tested on: SF-268 CNS
SF-295 CNS = tested on: SF-295 CNS
SF-539 CNS = tested on: SF-539 CNS
SK-MEL-2 melanoma = tested on: SK-MEL-2 melanoma
SK-MEL-28 melanoma = tested on: SK-MEL-28 melanoma
SK-MEL-5 melanoma = tested on: SK-MEL-5 melanoma
SK-OV-3 ovarian = tested on: SK-OV-3 ovarian
SN12C renal = tested on: SN12C renal
SNB-19 CNS = tested on: SNB-19 CNS
SNB-75 CNS = tested on: SNB-75 CNS
SR leukemia = tested on: SR leukemia
SW-620 colon = tested on: SW-620 colon
T-47D breast = tested on: T-47D breast
TK-10 renal = tested on: TK-10 renal
U251 CNS = tested on: U251 CNS
UACC-257 melanoma = tested on: UACC-257 melanoma
UACC-62 melanoma = tested on: UACC-62 melanoma
UO-31 renal = tested on: UO-31 renal

## O=C1OCC2=C1C(c1cccc(F)c1)c1cc3c(cc1N2CCO)CCC3 (stereo not drawn)
786-0 renal
  GI50: 71.8 nM
  TGI: > 50000 nM
A498 renal
  GI50: 13.8 nM
  TGI: 261 nM
A549 NSCLC
  GI50: 113 nM
  TGI: > 50000 nM
ACHN renal
  GI50: 129 nM
  TGI: > 50000 nM
BT-549 breast
  GI50: 161 nM
  TGI: 6950 nM
CAKI-1 renal
  GI50: 38.1 nM
  TGI: > 33300 nM
CCRF-CEM leukemia
  GI50: 168 nM
  TGI: > 50000 nM
COLO 205 colon
  GI50: 152 nM
DU-145 prostate
  GI50: 162 nM
  TGI: > 24400 nM
EKVX NSCLC
  GI50: 162 nM
  TGI: > 50000 nM
HCC-2998 colon
  GI50: 148 nM
  TGI: 11000 nM
HCT-116 colon
  GI50: 81.9 nM
  TGI: > 50000 nM
HCT-15 colon
  GI50: 46.4 nM
  TGI: > 20200 nM
HL-60(TB) leukemia
  GI50: 77.3 nM
  TGI: 376 nM
HOP-62 NSCLC
  GI50: 798 nM
  TGI: > 50000 nM
HOP-92 NSCLC
  GI50: 1620 nM
  TGI: 49600 nM
HS 578T breast
  GI50: 50.9 nM
  TGI: > 30600 nM
HT29 colon
  GI50: 92.2 nM
  TGI: > 18900 nM
IGROV1 ovarian
  GI50: 81.7 nM
  TGI: > 50000 nM
K-562 leukemia
  GI50: 28 nM
  TGI: > 50000 nM
KM12 colon
  GI50: 55.9 nM
  TGI: > 50000 nM
LOX IMVI melanoma
  GI50: 95.8 nM
  TGI: 10100 nM
M14 melanoma
  GI50: 49.1 nM
  TGI: > 20900 nM
MCF7 breast
  GI50: 22.9 nM
  TGI: > 29000 nM
MDA-MB-231 breast
  GI50: 218 nM
  TGI: > 22200 nM
MDA-MB-435
  GI50: 16.6 nM
  TGI: 68.4 nM
MOLT-4 leukemia
  GI50: 237 nM
  TGI: > 50000 nM
NCI-H226 lung
  GI50: 1020 nM
  TGI: > 47600 nM
NCI-H23 lung
  GI50: 248 nM
  TGI: > 50000 nM
NCI-H460 lung
  GI50: 60.9 nM
  TGI: 6970 nM
NCI-H522 lung
  GI50: 16.9 nM
  TGI: 704 nM
NCI/ADR-RES ovarian
  GI50: 43.5 nM
  TGI: > 50000 nM
OVCAR-3 ovarian
  GI50: 29.3 nM
  TGI: 3920 nM
OVCAR-4 ovarian
  GI50: 1760 nM
  TGI: > 50000 nM
OVCAR-5 ovarian
  GI50: 205 nM
  TGI: > 50000 nM
OVCAR-8 ovarian
  GI50: 139 nM
  TGI: > 50000 nM
PC-3 prostate
  GI50: 65.7 nM
  TGI: > 50000 nM
RPMI-8226 leukemia
  GI50: 167 nM
  TGI: 29700 nM
RXF 393 renal
  GI50: 91.4 nM
  TGI: > 50000 nM
SF-268 CNS
  GI50: 122 nM
  TGI: 25200 nM
SF-295 CNS
  GI50: 23.3 nM
  TGI: 10800 nM
SF-539 CNS
  GI50: 49.1 nM
  TGI: 434 nM
SK-MEL-2 melanoma
  GI50: 1070 nM
  TGI: 39000 nM
SK-MEL-28 melanoma
  GI50: 655 nM
  TGI: > 50000 nM
SK-MEL-5 melanoma
  GI50: 62.6 nM
  TGI: 2580 nM
SK-OV-3 ovarian
  GI50: 844 nM
  TGI: > 50000 nM
SN12C renal
  GI50: 233 nM
  TGI: > 50000 nM
SNB-19 CNS
  GI50: 113 nM
  TGI: > 50000 nM
SNB-75 CNS
  GI50: 13.6 nM
  TGI: 47400 nM
SR leukemia
  GI50: 28.5 nM
  TGI: 37400 nM
SW-620 colon
  GI50: 57.1 nM
  TGI: > 50000 nM
T-47D breast
  GI50: 2930 nM
  TGI: > 50000 nM
TK-10 renal
  GI50: 433 nM
  TGI: > 50000 nM
U251 CNS
  GI50: 90.4 nM
  TGI: > 34000 nM
UACC-257 melanoma
  GI50: 12200 nM
  TGI: > 50000 nM
UACC-62 melanoma
  GI50: 22.7 nM
  TGI: 33400 nM
UO-31 renal
  GI50: 107 nM
  TGI: > 42500 nM
